Results: patent US11001564B2, “Substituted chromane-8-carboxamide compounds and analogues thereof, and methods using same” (priority 2016, dated 2021)
Structures can show the parent of a compound that is named as a salt. Where two headings read alike, the source gives them in different places.

System: HBV rcDNA in HepDE19 cells
Assay: HepDE19 assay with bDNA quantitation of HBV rcDNA
Type: cell-based, hepatitis B virus (HBV)
Settings: Hepatitis B virus, HepDE19, 168 h
Outline: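 HepG2-derived HepDE19 cells, switched to Tet-free medium, were exposed 7 days at 37 °C to compound (8-point ½-log series from 25 μM, 0.5% DMSO). HBV rcDNA measured by bDNA assay with HBV-specific probes; EC50/EC90 by 4-parameter fit. CC50 from CellTiter-Glo ATP on replicate plates after 4 days.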

[1] = read-out: DE-19 bDNA EC50, HepDE19 cells, 7 day incubation, rcDNA by Quantigene 2.0 bDNA assay
[2] = HepDE19 cells, 7 day incubation, rcDNA by Quantigene 2.0 bDNA assay, read-out: DE-19 bDNA EC50

| Compound | EC50 [1] | EC50 [2] |
| --- | --- | --- |
| CNC(=O)N1CCC(COC(=O)N[C@H]2CCOc3c(C(=O)Nc4ccc(F)c(Cl)c4)ccc(F)c32)CC1 [Compound 165, (1-(Methylcarbamoyl)piperidin-4-yl)methyl (S)-(8-((3-chloro-4-fluorophenyl)carbamoyl)-5-fluorochroman-4-yl)carbamate] | 0.35 µM | – |
| Cc1cc(NC(=O)c2ccc(F)c3c2OCC[C@@H]3NC(=O)OC[C@@H]2CCC(=O)N2C)ccc1F [Compound 166, ((S)-1-Methyl-5-oxopyrrolidin-2-yl)methyl ((S)-5-fluoro-8-((4-fluoro-3-methylphenyl)carbamoyl)chroman-4-yl)carbamate] | – | 1.3 µM |
| Cc1cc(NC(=O)c2ccc(F)c3c2OCC[C@@H]3NC(=O)OCc2cccc(N3CCOCC3)n2)ccc1F [Compound 167, (6-Morpholinopyridin-2-yl)methyl (S)-(5-fluoro-8-((4-fluoro-3-methylphenyl)carbamoyl)chroman-4-yl)carbamate] | – | 1.8 µM |
| Cc1cc(NC(=O)c2ccc(F)c3c2OCC[C@@H]3NC(=O)OC[C@H]2CCC(=O)N2C)ccc1F [Compound 168, ((R)-1-Methyl-5-oxopyrrolidin-2-yl)methyl ((S)-5-fluoro-8-((4-fluoro-3-methylphenyl)carbamoyl)chroman-4-yl)carbamate] | – | 1.6 µM |
| O=C(N[C@H]1CCSc2c(C(=O)Nc3ccc(F)c(F)c3)ccc(F)c21)OCc1ccccn1 [Compound 169, Pyridin-2-ylmethyl (S)-(8-((3,4-difluorophenyl)carbamoyl)-5-fluorothiochroman-4-yl)carbamate hydrochloride] | 5.3 µM | – |
| O=C(N[C@@H]1CCSc2c(C(=O)Nc3ccc(F)c(F)c3)ccc(F)c21)OCc1ccccn1 [Compound 170, Pyridin-2-ylmethyl (R)-(8-((3,4-difluorophenyl)carbamoyl)-5-fluorothiochroman-4-yl)carbamate hydrochloride] | 21 µM | – |
| COC(=O)N[C@H]1CCSc2c(C(=O)Nc3ccc(F)c(F)c3)ccc(F)c21 [Compound 171, Methyl (S)-(8-((3,4-difluorophenyl)carbamoyl)-5-fluorothiochroman-4-yl)carbamate] | – | 4.1 µM |
| O=C(N[C@H]1CCSc2c(C(=O)Nc3ccc(F)c(Cl)c3)ccc(F)c21)OCc1ccccn1 [Compound 172] | – | 2.9 µM |
| O=C(N[C@@H]1CCSc2c(C(=O)Nc3ccc(F)c(Cl)c3)ccc(F)c21)OCc1ccccn1 [Compound 173] | – | 8.7 µM |
| COC(=O)N[C@H]1CCSc2c(C(=O)Nc3ccc(F)c(Cl)c3)ccc(F)c21 [Compound 174, Methyl (S)-(8-((3-chloro-4-fluorophenyl)carbamoyl)-5-fluorothiochroman-4-yl)carbamate] | – | 1.6 µM |
| O=C(NC1CCNc2c(C(=O)Nc3ccc(F)c(F)c3)cccc21)OCc1ccccn1 (stereo not drawn) [Compound 175, pyridin-2-ylmethyl (8-((3,4-difluorophenyl)carbamoyl)-1,2,3,4-tetrahydroquinolin-4-yl)carbamate] | – | 12 µM |
| COC(=O)NC1CCNc2c(C(=O)Nc3ccc(F)c(Cl)c3)cccc21 (stereo not drawn) [Compound 176, methyl (8-((3-chloro-4-fluorophenyl)carbamoyl)-1,2,3,4-tetrahydroquinolin-4-yl)carbamate] | – | 23 µM |
| COC(=O)N[C@H]1CCCc2c(C(=O)Nc3ccc(F)c(F)c3)cccc21 [Compound 184, Methyl (S)-(5-((3,4-difluorophenyl)carbamoyl)-1,2,3,4-tetrahydronaphthalen-1-yl)carbamate] | – | 8.7 µM |
| CNC(=O)N[C@H]1CCCc2c(C(=O)Nc3ccc(F)c(F)c3)cccc21 [Compound 185, (S)—N-(3,4-Difluorophenyl)-5-(3-methylureido)-5,6,7,8-tetrahydronaphthalene-1-carboxamide] | 9.8 µM | – |
| O=C(N[C@H]1CCCc2c(C(=O)Nc3ccc(F)c(F)c3)cccc21)OCc1ccccn1 [Compound 186, Pyridin-2-ylmethyl (S)-(5-((3,4-difluorophenyl)carbamoyl)-1,2,3,4-tetrahydronaphthalen-1-yl)carbamate] | 5.6 µM | – |
